The record followed here is patent US7737166B2, “Antifungal bicyclic hetero ring compounds” (Daiichi Sankyo Company, Limited, priority 2005, dated 2010).

The test system of one data set is C. albicans ATCC90028. In words: Antifungal activity (GI80), growth inhibition in YPD20 medium by absorbance at 600 nm. Format: cell-based. To be noted: Candida albicans, ATCC90028, minimum concentration for at least 80% cell growth inhibition, 37° C., absorbance 600 nm, read-out: GI80 (μg/ml) C. albicans ATCC90028. Put shortly:
(§1)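 Cells grown overnight on Sabouraud dextrose agar at 30° C were inoculated at 5×10^3 cells/ml into YPD20-type medium with 2-fold DMSO compound dilutions. Aerobic static culture at 37° C for […], then A600 read; GI80 is the lowest concentration giving ≥80% growth inhibition versus compound-free wells.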

The subject of another data set is C. albicans ATCC MYA-573. The data set is described as above. Format: cell-based. The following applies: Candida albicans, minimum concentration for at least 80% cell growth inhibition, 37° C., absorbance 600 nm, read-out: GI80 (μg/ml) C. albicans ATCC MYA-573. A digest of the protocol:
as §1

Another data set concerns C. glabrata ATCC48435. The data set is described as above. Type of data set: cell-based. To be noted: Nakaseomyces glabratus, ATCC48435, minimum concentration for at least 80% cell growth inhibition, 37° C., absorbance 600 nm, read-out: GI80 (μg/ml) C. glabrata ATCC48435. Put shortly:
as §1

The structures appear in SMILES notation. ≈ marks a conversion by molar mass, not a printed value. Where only a bound is given, the exact number is not on record here.

Turning to `Cc1c(-c2ccccc2)c(N2CC[C@H](N(C)C)C2)c2oc(C(C)(C)F)nc2c1C#N` [Example 148, 7-[(3S)-3-(Dimethylamino)pyrrolidin-1-yl]-2-(1-fluoro-1-methylethyl)-5-methyl-6-phenyl-1,3-benzoxazole-4-carbonitrile], the melting point lay in the range of 130 to 132 °C. For the same compound, the IC80 with C. albicans ATCC90028 turned out to be 0.032 µg/mL (≈ 0.0787 µM). Moreover, in the data set with C. albicans ATCC MYA-573, the IC80 came to 0.063 µg/mL (≈ 0.155 µM). Also, the IC80 in the data set with C. glabrata ATCC48435 was less than 0.016 µg/mL.
The like results for `CN[C@@]1(C)CCN(c2c(-c3ccccc3)c(C)c(C#N)c3nc(C(=O)N(C)C)oc23)C1` [Example 159, 4-Cyano-N,N,5-trimethyl-7-[(3S)-3-methyl-3-(methylamino)pyrrolidin-1-yl]-6-phenyl-1,3-benzoxazole-2-carboxamide] were, in that order, 172 to 174 °C, 0.063 µg/mL (≈ 0.151 µM), 0.063 µg/mL (≈ 0.151 µM) and less than 0.016 µg/mL.

As usually defined, the melting point is the temperature, or range, at which the solid turns liquid.
